PubChem BioAssay (NCI)
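Here, GI50 denotes the concentration required for 50% inhibition of growth. TGI: total growth inhibition.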

Experiments:
Assay in all cases: NCI-60 cell line screen, 384-well format
[1] = system: RXF 393 renal
[2] = system: NCI/ADR-RES ovarian
[3] = system: KM12 colon
[4] = system: SK-MEL-28 melanoma
[5] = system: CCRF-CEM leukemia
[6] = system: MALME-3M melanoma
[7] = system: A549 NSCLC
[8] = system: SK-OV-3 ovarian
[9] = system: UACC-257 melanoma
[10] = system: NCI-H322M lung
[11] = system: MOLT-4 leukemia
[12] = system: SNB-75 CNS
[13] = system: A498 renal
[14] = system: RPMI-8226 leukemia
[15] = system: PC-3 prostate
[16] = system: OVCAR-4 ovarian
[17] = system: EKVX NSCLC
[18] = system: NCI-H460 NSCLC
[19] = system: SK-MEL-5 melanoma
[20] = system: HL-60(TB) leukemia
[21] = system: HS 578T breast
[22] = system: HCT-116 colon
[23] = system: SF-268 CNS
[24] = system: SW-620 colon
[25] = system: OVCAR-3 ovarian
[26] = system: TK-10 renal
[27] = system: IGROV1 ovarian
[28] = system: SF-539 CNS
[29] = system: UO-31 renal
[30] = system: SF-295 CNS
[31] = system: HCC-2998 colon
[32] = system: NCI-H23 lung
[33] = system: HT29 colon
[34] = system: BT-549 breast
[35] = system: HOP-62 NSCLC
[36] = system: K-562 leukemia
[37] = system: MDA-MB-435 melanoma
[38] = system: SR leukemia
[39] = system: M14 melanoma
[40] = system: SNB-19 CNS
[41] = system: HCT-15 colon
[42] = system: SN12C renal
[43] = system: U251 glioblastoma
[44] = system: NCI-H226 lung
[45] = system: UACC-62 melanoma
[46] = system: 786-0 renal
[47] = system: OVCAR-5 ovarian
[48] = system: NCI-H522 lung
[49] = system: MCF7 breast
[50] = system: MDA-MB-231 breast
[51] = system: CAKI-1 renal
[52] = system: T-47D breast
[53] = system: HOP-92 NSCLC
[54] = system: ACHN renal
[55] = system: MDA-MB-468 breast
[56] = system: SK-MEL-2 melanoma
[57] = system: LOX IMVI melanoma
[58] = system: COLO 205 colon
[59] = system: DU-145 prostate

COc1nccc(-c2c(-c3ccc(F)cc3)ncn2C2CCC(O)CC2)n1 (stereo not drawn)
GI50 [1]: > 100 µM
TGI [1]: > 100 µM
GI50 [2]: > 100 µM
TGI [2]: > 100 µM
GI50 [3]: > 100 µM
TGI [3]: > 100 µM
GI50 [4]: > 100 µM
TGI [4]: > 100 µM
GI50 [5]: 50 µM
TGI [5]: > 100 µM
GI50 [6]: > 100 µM
TGI [6]: > 100 µM
GI50 [7]: 39.2 µM
TGI [7]: > 100 µM
GI50 [8]: 62.5 µM
TGI [8]: > 100 µM
GI50 [9]: > 100 µM
TGI [9]: > 100 µM
GI50 [10]: > 100 µM
TGI [10]: > 100 µM
GI50 [11]: 29.5 µM
TGI [11]: > 100 µM
GI50 [12]: > 100 µM
TGI [12]: > 100 µM
GI50 [13]: > 100 µM
TGI [13]: > 100 µM
GI50 [14]: 90.1 µM
TGI [14]: > 100 µM
GI50 [15]: > 100 µM
TGI [15]: > 100 µM
GI50 [16]: > 100 µM
TGI [16]: > 100 µM
GI50 [17]: > 100 µM
TGI [17]: > 100 µM
GI50 [18]: 71.6 µM
TGI [18]: > 100 µM
GI50 [19]: 90.3 µM
TGI [19]: > 100 µM
GI50 [20]: 77 µM
TGI [20]: > 100 µM
GI50 [21]: > 100 µM
TGI [21]: > 100 µM
GI50 [22]: > 100 µM
TGI [22]: > 100 µM
GI50 [23]: > 100 µM
TGI [23]: > 100 µM
GI50 [24]: > 100 µM
TGI [24]: > 100 µM
GI50 [25]: > 100 µM
TGI [25]: > 100 µM
GI50 [26]: 37.4 µM
TGI [26]: > 100 µM
GI50 [27]: 38.5 µM
TGI [27]: > 100 µM
GI50 [28]: > 100 µM
TGI [28]: > 100 µM
GI50 [29]: 31.4 µM
TGI [29]: > 100 µM
GI50 [30]: > 100 µM
TGI [30]: > 100 µM
GI50 [31]: > 100 µM
TGI [31]: > 100 µM
GI50 [32]: > 100 µM
TGI [32]: > 100 µM
GI50 [33]: 46 µM
TGI [33]: > 100 µM
GI50 [34]: > 100 µM
TGI [34]: > 100 µM
GI50 [35]: > 100 µM
TGI [35]: > 100 µM
GI50 [36]: 36.1 µM
TGI [36]: > 100 µM
GI50 [37]: > 100 µM
TGI [37]: > 100 µM
GI50 [38]: 31.6 µM
TGI [38]: > 100 µM
GI50 [39]: > 100 µM
TGI [39]: > 100 µM
GI50 [40]: > 100 µM
TGI [40]: > 100 µM
GI50 [41]: 58.7 µM
TGI [41]: > 100 µM
GI50 [42]: > 100 µM
TGI [42]: > 100 µM
GI50 [43]: > 100 µM
TGI [43]: > 100 µM
GI50 [44]: 91.2 µM
TGI [44]: > 100 µM
GI50 [45]: > 100 µM
TGI [45]: > 100 µM
GI50 [46]: 69.8 µM
TGI [46]: > 100 µM
GI50 [47]: > 100 µM
TGI [47]: > 100 µM
GI50 [48]: 22.6 µM
TGI [48]: 93.5 µM
GI50 [49]: 36.2 µM
TGI [49]: > 100 µM
GI50 [50]: > 100 µM
TGI [50]: > 100 µM
GI50 [51]: 31.7 µM
TGI [51]: > 100 µM
GI50 [52]: > 100 µM
TGI [52]: > 100 µM
GI50 [53]: > 100 µM
TGI [53]: > 100 µM
GI50 [54]: 36.3 µM
TGI [54]: > 100 µM
GI50 [55]: 13.2 µM
TGI [55]: > 100 µM
GI50 [56]: > 100 µM
TGI [56]: > 100 µM
GI50 [57]: > 100 µM
TGI [57]: > 100 µM
GI50 [58]: > 100 µM
TGI [58]: > 100 µM
GI50 [59]: > 100 µM
TGI [59]: > 100 µM
